# Data taken from paper PMC10787893, “Expression and characterization of the new antimicrobial peptide AP138L-arg26 anti Staphylococcus aureus” (Applied Microbiology and Biotechnology, 2024).
# Bridge positions count the residues as written; N and C are the ends. Peptide text beside a SMILES is read from it.
# Experiments:
# [1] = test system: mouse macrophages RAW264.7; assay: Cytotoxicity, MTT method; format: cell-based; settings: 256 µg/mL; RAW264.7, MTT
# Text: The cytotoxicity of AP138L-arg26 to mouse macrophages RAW264.7 was detected by the thiazolyl blue tetrazolium bromide (MTT) method as described previously (Shen et al. [2021]).
# S. aureus CVCC 546 [2] = assay: Artificial intestinal juice (trypsin) stability, MIC after treatment; format: in vitro ADME, Staphylococcus aureus; settings: then MIC assay
# S. aureus CVCC 546 [3] = assay: Salt stability, MIC after treatment; format: physicochemical, Staphylococcus aureus; settings: then MIC assay
# S. aureus CVCC 546 [4] = assay: Serum stability, MIC after treatment; format: in vitro ADME, Staphylococcus aureus; settings: then MIC
# Text: Table 4 The stability of AMPs in different environments | column: MIC
# S. aureus CVCC 546 [5] = assay: pH stability, MIC after treatment; format: physicochemical, Staphylococcus aureus
# S. aureus CVCC 546 [6] = assay: Intracellular ATP determination; format: cell-based, Staphylococcus aureus
# Text: As ATP is the most direct source of energy for living organisms, the effect of antimicrobial peptides on ATP was explored with an ATP assay kit (Beyotime, Shanghai, China). […] The luminescence was detected using an Infinite M200 Microplate reader (Tecan, Luminescence signals).
# [7] = test system: selected standard and clinical Gram-positive bacteria; assay: MIC/MBC summary over the panel of strains; format: cell-based, S. aureus, S. epidermidis, S. dysgalactiae, S. agalactiae
# Procedure: To determine the MIC values of AP138L-arg26, we used the broth microdilution technique as previously described (Andrews. [2001]; Wiegand et al. [2008]). In brief, AP138L-arg26 peptide were diluted from 1280 to 2.5 µg/mL and added to a 96-cells plate with 10 µL per well. The bacteria in the logarithmic stage were diluted to 10^5 CFU/mL with 90 µL per well. […] The MBC method was also based on the CLSI 2021 guidelines.
# S. aureus CVCC 546 [8] = assay: Potassium ion (K+) leakage, ICP-MS; format: cell-based, Staphylococcus aureus
# Text: The integrity effect of antimicrobial peptide AP138L-arg26 on bacterial cell membranes was further verified, and the K^+ leakage assay was previously described (Li et al. [2020]). Briefly, the main procedures were as follows: Firstly, prepare the S. aureus CVCC 546 bacteria suspension at a concentration of 1 × 10^8 CFU/mL. […] Finally, the supernatants were detected using inductively coupled plasma mass spectrometry (ICP-MS) (SantaClara, CA, USA).
# S. aureus ATCC 43300 = assay: Post-antibiotic effect (PAE) assay; format: cell-based, Staphylococcus aureus
# Text: The method of PAE of AP138L-arg26 against MRSA ATCC 43300 or S. aureus CVCC 546 was described previously (Wang et al. [2018]). The formula is PAE = T − C (T is the time required for the number of colonies in the sample treatment group to increase by tenfold, and C is the time required for the untreated group).
# ICR mice = assay: Acute toxicity in mice; format: in vivo, mouse
# Procedure: AP138L-arg26 was administrated by intraperitoneal injection (n = 4 per group, 10 mg/kg, body weight 25 g) every day for 1 week (Shi et al. [2022]). After 7 days, the mice were euthanized to collect anticoagulant whole-blood and tissues (liver, spleen, kidney, and lung), which were used for whole blood and biochemical detection, or tissue sections (hematoxylin-eosin (HE) staining), respectively.
structure (smiles),measurement,setting,value
"CC[C@H](C)[C@@H]1NC(=O)[C@H](CO)NC(=O)[C@H](CCCCN)NC(=O)[C@@H]2CSSC[C@@H](C(=O)N[C@@H](Cc3ccc(O)cc3)C(=O)O)NC(=O)[C@H](CCCCN)NC(=O)[C@@H]3CSSC[C@H](NC(=O)[C@H](CCCNC(=N)N)NC(=O)[C@H](CC(C)C)NC(=O)[C@H](CC(=O)O)NC(=O)[C@H](CC(=O)O)NC(=O)[C@H](CCC(=O)O)NC(=O)[C@H](CO)NC(=O)[C@H](Cc4c[nH]c5ccccc45)NC(=O)[C@@H]4CCCN4C(=O)CNC(=O)[C@H](CC(N)=O)NC(=O)[C@@H](NC(=O)CNC(=O)[C@H](Cc4ccccc4)NC(=O)CN)CSSC[C@H](NC(=O)[C@H](Cc4ccc(O)cc4)NC(=O)CNC(=O)CNC(=O)[C@H](CCCNC(=N)N)NC(=O)[C@H](Cc4ccc(O)cc4)NC(=O)CNC(=O)[C@H](CCCCN)NC1=O)C(=O)N[C@@H](C)C(=O)N[C@@H](CCCCN)C(=O)NCC(=O)NCC(=O)N[C@@H](Cc1ccccc1)C(=O)N[C@@H](C(C)C)C(=O)N3)C(=O)N[C@@H](Cc1c[nH]cn1)C(=O)N[C@@H](CCCNC(=N)N)C(=O)N[C@@H](Cc1c[nH]cn1)C(=O)N2 [AP138L-arg26] (H-GFGCNGPWSEDDLRCHRHCKSIKGYRGGYCAKGGFVCKCY-OH; disulfide 4-30, 15-37, 19-39; N-terminus and C-terminus assumed)",cell viability,[1],over 75%
same,"MIC, Intestinal juice (0.25 h)",S. aureus CVCC 546 [2]; peptide in artificial intestinal juice for 0.25 h,> 64 µg/mL
same,"MIC, Intestinal juice (0.5 h)",S. aureus CVCC 546 [2]; peptide in artificial intestinal juice for 0.5 h,> 64 µg/mL
same,"MIC, Intestinal juice (1 h)",S. aureus CVCC 546 [2]; peptide in artificial intestinal juice for 1 h,> 64 µg/mL
same,"MIC, Intestinal juice (2 h)",S. aureus CVCC 546 [2]; peptide in artificial intestinal juice for 2 h,> 64 µg/mL
same,"MIC, CaCl2 (2.5 mM)",S. aureus CVCC 546 [3]; peptide incubated with 2.5 mM CaCl2 for 1 h at 37 °C,8 µg/mL
same,"MIC, KCl (2.5 mM)",S. aureus CVCC 546 [3]; peptide incubated with 2.5 mM KCl for 1 h at 37 °C,8 µg/mL
same,"MIC, MgCl2 (2.5 mM)",S. aureus CVCC 546 [3]; peptide incubated with 2.5 mM MgCl2 for 1 h at 37 °C,16 µg/mL
same,"MIC, CaCl2 (5 mM)",S. aureus CVCC 546 [3]; peptide incubated with 5 mM CaCl2 for 1 h at 37 °C,16 µg/mL
same,"MIC, KCl (5 mM)",S. aureus CVCC 546 [3]; peptide incubated with 5 mM KCl for 1 h at 37 °C,8 µg/mL
same,"MIC, MgCl2 (5 mM)",S. aureus CVCC 546 [3]; peptide incubated with 5 mM MgCl2 for 1 h at 37 °C,16 µg/mL
same,"MIC, NaCl (50 mM)",S. aureus CVCC 546 [3]; peptide incubated with 50 mM NaCl for 1 h at 37 °C,8 µg/mL
same,"MIC, NaCl (100 mM)",S. aureus CVCC 546 [3]; peptide incubated with 100 mM NaCl for 1 h at 37 °C,8 µg/mL
same,"MIC, NaCl (150 mM)",S. aureus CVCC 546 [3]; peptide incubated with 150 mM NaCl for 1 h at 37 °C,8 µg/mL
same,"MIC, NaCl (200 mM)",S. aureus CVCC 546 [3]; peptide incubated with 200 mM NaCl for 1 h at 37 °C,16 µg/mL
same,"MIC, NaCl (300 mM)",S. aureus CVCC 546 [3]; peptide incubated with 300 mM NaCl for 1 h at 37 °C,16 µg/mL
same,"MIC, CaCl2 ([…])",S. aureus CVCC 546 [3]; peptide incubated with […] CaCl2 for 1 h at 37 °C,8 µg/mL
same,"MIC, KCl ([…])",S. aureus CVCC 546 [3]; peptide incubated with […] KCl for 1 h at 37 °C,8 µg/mL
same,"MIC, MgCl2 ([…])",S. aureus CVCC 546 [3]; peptide incubated with […] MgCl2 for 1 h at 37 °C,8 µg/mL
same,"MIC, 25% serum (0.5 h)",S. aureus CVCC 546 [4]; peptide in 25% serum for 0.5 h,8 µg/mL
same,"MIC, 25% serum (1 h)",S. aureus CVCC 546 [4]; peptide in 25% serum for 1 h,16 µg/mL
same,"MIC, 25% serum (2 h)",S. aureus CVCC 546 [4]; peptide in 25% serum for 2 h,16 µg/mL
same,"MIC, 25% serum (4 h)",S. aureus CVCC 546 [4]; peptide in 25% serum for 4 h,8 µg/mL
same,"MIC, 25% serum (6 h)",S. aureus CVCC 546 [4]; peptide in 25% serum for 6 h,16 µg/mL
same,"MIC, 25% serum (8 h)",S. aureus CVCC 546 [4]; peptide in 25% serum for 8 h,8 µg/mL
same,"MIC, 50% serum (0.5 h)",S. aureus CVCC 546 [4]; peptide in 50% serum for 0.5 h,8 µg/mL
same,"MIC, 50% serum (1 h)",S. aureus CVCC 546 [4]; peptide in 50% serum for 1 h,8 µg/mL
same,"MIC, 50% serum (2 h)",S. aureus CVCC 546 [4]; peptide in 50% serum for 2 h,8 µg/mL
same,"MIC, 50% serum (4 h)",S. aureus CVCC 546 [4]; peptide in 50% serum for 4 h,8 µg/mL
same,"MIC, 50% serum (6 h)",S. aureus CVCC 546 [4]; peptide in 50% serum for 6 h,8 µg/mL
same,"MIC, 50% serum (8 h)",S. aureus CVCC 546 [4]; peptide in 50% serum for 8 h,8 µg/mL
same,antimicrobial activity after different pH values (2–10),"S. aureus CVCC 546 [5]; pH 2–10, 1 h, MIC assay",unaffected
same,"MIC, pH 2","S. aureus CVCC 546 [5]; peptide incubated at pH 2 for 1 h at 37 °C, then MIC assay",8 µg/mL
same,"MIC, pH 4","S. aureus CVCC 546 [5]; peptide incubated at pH 4 for 1 h at 37 °C, then MIC assay",16 µg/mL
same,"MIC, pH 6","S. aureus CVCC 546 [5]; peptide incubated at pH 6 for 1 h at 37 °C, then MIC assay",16 µg/mL
same,"MIC, pH 8","S. aureus CVCC 546 [5]; peptide incubated at pH 8 for 1 h at 37 °C, then MIC assay",8 µg/mL
same,"MIC, pH 10","S. aureus CVCC 546 [5]; peptide incubated at pH 10 for 1 h at 37 °C, then MIC assay",16 µg/mL
same,"intracellular ATP, times higher than the untreated group",S. aureus CVCC 546 [6]; 1 × MIC,7.6 times
same,"intracellular ATP, times higher than the untreated group",S. aureus CVCC 546 [6]; 2 × MIC,8.2 times
same,"intracellular ATP, times higher than the untreated group",S. aureus CVCC 546 [6]; 4 × MIC (maximum),8.5 times
same,MIC against Streptococcus,[7]; Streptococcus strains,4 µg/mL
same,MBC relative to MIC,[7]; over the strains of Table 2,around fourfold higher than MICs
same,MIC against S. aureus,[7]; range over S. aureus strains,2 to 16 µg/mL
same,MIC against selected standard and clinical Gram-positive bacteria,[7]; range over all strains of Table 2,2 to 16 µg/mL
same,MIC against selected standard and clinical Gram-positive bacteria,"[7]; range over all strains, converted from µg/mL",0.45 to 3.6 µM
same,extracellular K+ leakage level,"S. aureus CVCC 546 [8]; 2 × MIC, 37 °C, 1 × 10^8 CFU/mL, ICP-MS, untreated 0.02 mg/L",0.05 mg/L
same,intracellular potassium leakage relative to control,S. aureus CVCC 546 [8]; as given in the abstract,2.5 fold
same,PAE,"S. aureus ATCC 43300; 1 × MIC, PAE = T − C",0.9 h
same,PAE,"S. aureus ATCC 43300; 2 × MIC, PAE = T − C",1.25 h
same,PAE,"S. aureus ATCC 43300; 4 × MIC, PAE = T − C",1.91 h
same,PAE,"S. aureus ATCC 43300; as given in the abstract, concentration not given",1.91 h
same,"histology (HE) of heart, kidney, spleen, lung and liver",ICR mice; 10 mg/kg i.p. daily for a week,"no hyperemia, bleeding, hyperplasia, or other lesions"
same,whole blood detection indexes and biochemical indexes compared with the control group,ICR mice; 10 mg/kg i.p. daily for a week,no significant differences
same,difference in biochemical index versus control,ICR mice; 10 mg/kg i.p. for 1 week,< 4%
same,difference in whole blood detection indexes versus control,ICR mice; 10 mg/kg i.p. for 1 week,< 4.5%
